Patent US10745382B2 (BRISTOL-MYERS SQUIBB COMPANY, priority 2015, dated 2020)

Target: T1, PD-1/PD-L1 (Homo sapiens, UniProt Q9NZQ7)
T1 construct: made in house; host or cells: HEK293T
Experiment: PD-1/PD-L1 Homogenous Time-Resolved Fluorescence (HTRF) binding assay
Details: PD-L1-His 10 nM, PD-1-Ig 20 nM; value given as range class; read-out: Range or IC50
Summary of the method: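 Compounds are tested for blocking the PD-1/PD-L1 interaction in dPBS supplemented with 0.1% BSA and 0.05% (v/v) Tween-20. Tagged proteins are detected with Eu-cryptate anti-Ig and APC anti-His at 1 and 20 nM final.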

T1 sequence (Q9NZQ7 with tags, fused parts or gaps): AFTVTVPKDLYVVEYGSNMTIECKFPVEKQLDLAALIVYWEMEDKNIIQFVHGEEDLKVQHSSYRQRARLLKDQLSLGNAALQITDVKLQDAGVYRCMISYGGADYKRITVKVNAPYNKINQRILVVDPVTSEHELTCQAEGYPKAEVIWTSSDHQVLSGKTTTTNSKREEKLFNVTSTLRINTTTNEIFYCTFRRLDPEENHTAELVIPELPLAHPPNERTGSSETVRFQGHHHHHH

IC50 [µM] | SMILES
0.00021 to 0.01 | Cc1c(COc2cc(OCc3cncc(C#N)c3)c(CN3CCCC[C@H]3C(=O)O)cc2Cl)cccc1-c1cccc(OCCCN2CC3CC2CO3)c1C (stereo partly drawn) [Example 2249, (2S)-1-(4-((3′-(3-(2-oxa-5-azabicyclo[2.2.1]heptan-5-yl)propoxy)-2,2′-dimethylbiphenyl-3-yl)methoxy)-5-chloro-2-((5-cyanopyridin-3-yl)methoxy)benzyl)piperidine-2-carboxylic Acid]
0.00021 to 0.01 | Cc1c(COc2cc(OCc3cncc(C#N)c3)c(CO)cc2Cl)cccc1-c1cccc(OCCCN2CC(N(C)C)C2)c1Cl [Example 2015, 5-((4-chloro-5-((2′-chloro-3′-(3-(3-(dimethylamino)azetidin-1-yl)propoxy)-2-methyl-[1,1′-biphenyl]-3-yl)methoxy)-2-(hydroxymethyl)phenoxy)methyl)nicotinonitrile]
0.00021 to 0.01 | Cc1c(COc2cc(OCc3cncc(C#N)c3)c(CN(C)C(C)(CO)CO)c(C)c2Cl)cccc1-c1cccc(OCCCN2CC[C@@H](O)C2)c1C [Example 4107, (R)-5-((4-chloro-2-(((1,3-dihydroxy-2-methylpropan-2-yl)(methyl)amino)methyl)-5-((3′-(3-(3-hydroxypyrrolidin-1-yl)propoxy)-2,2′-dimethyl-[1,1′-biphenyl]-3-yl)methoxy)-3-methylphenoxy)methyl)nicotinonitrile]
0.00021 to 0.01 | CCOC(=O)C1(CO)CCN(CCCOc2cccc(-c3cccc(COc4cc(OCc5cncc(C#N)c5)c(CN[C@H](CO)C(=O)O)cc4Cl)c3C)c2C)C1 (stereo partly drawn) [Example 1047, (2R)-2-((5-chloro-2-((5-cyanopyridin-3-yl)methoxy)-4-((3′-(3-(3-(ethoxycarbonyl)-3-(hydroxymethyl)pyrrolidin-1-yl)propoxy)-2,2′-dimethyl-[1,1′-biphenyl]-3-yl)methoxy)benzyl)amino)-3-hydroxypropanoic Acid]
0.00021 to 0.01 | Cc1c(COc2cc(OCc3cncc(C#N)c3)c(CN3CCCC[C@H]3C(=O)O)cc2Cl)cccc1-c1cccc(O[C@H](C)CCN2CC[C@@H](O)C2)c1C [Example 1526, (S)-1-(5-chloro-2-((5-cyanopyridin-3-yl)methoxy)-4-((3′-(((R)-4-((R)-3-hydroxypyrrolidin-1-yl)butan-2-yl)oxy)-2,2′-dimethyl-[1,1′-biphenyl]-3-yl)methoxy)benzyl)piperidine-2-carboxylic acid]
0.00021 to 0.01 | Cc1c(COc2cc(OCc3cncc(S(C)(=O)=O)c3)c(CN3CCCC[C@H]3C(=O)O)cc2Cl)cccc1-c1cccc(OCCCN2CC[C@@H](O)C2)c1 [Example 1022, (S)-1-(5-chloro-4-((3′-(3-((R)-3-hydroxypyrrolidin-1-yl)propoxy)-2-methyl-[1,1′-biphenyl]-3-yl)methoxy)-2-((5-(methylsulfonyl)pyridin-3-yl)methoxy)benzyl)piperidine-2-carboxylic Acid]
0.00021 to 0.01 | Cc1c(COc2cc(OCc3cncc(C#N)c3)c(CN3CCCC[C@H]3C(=O)O)cc2Cl)cccc1-c1ccc2c(c1)OC(CCN1CC[C@@H](O)C1)CO2 (single isomer, unassigned) [Example 1506]
0.00021 to 0.01 | COC(=O)C1CCN(CCCOc2cccc(-c3cccc(COc4cc(OCc5cncc(C#N)c5)c(CNC[C@H](O)CO)cc4Cl)c3C)c2Cl)CC1 [Example 2027, (S)-methyl 1-(3-((2-chloro-3′-((2-chloro-5-((5-cyanopyridin-3-yl)methoxy)-4-(((2,3-dihydroxypropyl)amino)methyl)phenoxy)methyl)-2′-methyl-[1,1′-biphenyl]-3-yl)oxy)propyl)piperidine-4-carboxylate]
0.01 to 0.1 | Cc1c(COc2cc(OCc3cncc(C(N)=O)c3)c(CN[C@@](C)(CO)C(=O)O)cc2Cl)cccc1-c1cccc(OCCCN2CCC(O)(CC(=O)O)C2)c1Cl (stereo partly drawn) [Example 1518, (2S)-2-((2-((5-carbamoylpyridin-3-yl)methoxy)-4-((3′-(3-(3-(carboxymethyl)-3-hydroxypyrrolidin-1-yl)propoxy)-2′-chloro-2-methyl-[1,1′-biphenyl]-3-yl)methoxy)-5-chlorobenzyl)amino)-3-hydroxy-2-methylpropanoic acid]
0.00021 to 0.01 | Cc1c(COc2cc(OCc3cncc(C#N)c3)c(CNC(CO)CO)cc2Cl)cccc1-c1cccc(Nc2cc(N3CCOCC3)ncn2)c1C [Example 2350, 5-((4-chloro-2-(((1,3-dihydroxypropan-2-yl)amino)methyl)-5-((2,2′-dimethyl-3′-((6-morpholinopyrimidin-4-yl)amino)-[1,1′-biphenyl]-3-yl)methoxy)phenoxy)methyl)nicotinonitrile]
0.1 to 2 | Cc1c(COc2cc(OCc3cncc(C#N)c3)c(CN3CCCC[C@H]3C(=O)O)cc2Cl)cccc1-c1cccc(OCCC(=O)N2CC[C@@H](O)C2)c1 [Example 1011, (S)-1-(5-chloro-2-((5-cyanopyridin-3-yl)methoxy)-4-((3′-(3-((R)-3-hydroxypyrrolidin-1-yl)-3-oxopropoxy)-2-methyl-[1,1′-biphenyl]-3-yl)methoxy)benzyl)piperidine-2-carboxylic Acid]
0.00021 to 0.01 | Cc1c(COc2cc(OCc3cncc(C#N)c3)c(CN3CCCC[C@H]3C(=O)O)cc2Cl)cccc1-c1cccc(OCCCN2C[C@H](O)C[C@H]2C(N)=O)c1Cl [Example 1085, (S)-1-(4-((3′-(3-((2S,4R)-2-carbamoyl-4-hydroxypyrrolidin-1-yl)propoxy)-2′-chloro-2-methyl-[1,1′-biphenyl]-3-yl)methoxy)-5-chloro-2-((5-cyanopyridin-3-yl)methoxy)benzyl)piperidine-2-carboxylic Acid]
0.00021 to 0.01 | Cc1c(COc2cc(OCc3cncc(C#N)c3)c(CNC(C)(CO)CO)c(C)c2Cl)cccc1-c1cccc(OCCCN2CC[C@@H](O)C2)c1C [Example 4103, (R)-5-((4-chloro-2-(((1,3-dihydroxy-2-methylpropan-2-yl)amino)methyl)-5-((3′-(3-(3-hydroxypyrrolidin-1-yl)propoxy)-2,2′-dimethyl-[1,1′-biphenyl]-3-yl)methoxy)-3-methylphenoxy)methyl)nicotinonitrile]
0.00021 to 0.01 | COC(=O)C1(O)CCN(CCCOc2cccc(-c3cccc(COc4cc(OCc5cncc(S(C)(=O)=O)c5)c(CN[C@](C)(CO)C(=O)O)cc4Cl)c3C)c2C)C1 (stereo partly drawn) [Example 1055, (2R)-2-((5-chloro-4-((3′-(3-(3-hydroxy-3-(methoxycarbonyl)pyrrolidin-1-yl)propoxy)-2,2′-dimethyl-[1,1′-biphenyl]-3-yl)methoxy)-2-((5-(methylsulfonyl)pyridin-3-yl)methoxy)benzyl)amino)-3-hydroxy-2-methylpropanoic Acid]
0.00021 to 0.01 | CC(=O)NC1CCN(CCCOc2cccc(-c3cccc(COc4cc(OCc5cncc(C#N)c5)c(CNC(CO)CO)cc4Cl)c3C)c2Cl)CC1 [Example 2062, N-(1-(3-((2-chloro-3′-((2-chloro-5-((5-cyanopyridin-3-yl)methoxy)-4-(((1,3-dihydroxypropan-2-yl)amino)methyl)phenoxy)methyl)-2′-methyl-[1,1′-biphenyl]-3-yl)oxy)propyl)piperidin-4-yl)acetamide]
0.00021 to 0.01 | Cc1c(COc2cc(OCc3cncc(C#N)c3)c(CN3CCCC[C@H]3C(=O)O)cc2Cl)cccc1-c1cccc(OCCCN2CCC[C@H](O)C2)c1 [Example 1019, (S)-1-(5-chloro-2-((5-cyanopyridin-3-yl)methoxy)-4-((3′-(3-((S)-3-hydroxypiperidin-1-yl)propoxy)-2-methyl-[1,1′-biphenyl]-3-yl)methoxy)benzyl)piperidine-2-carboxylic Acid]
0.00021 to 0.01 | Cc1c(COc2cc(OCc3cncc(C#N)c3)c(CO)cc2Cl)cccc1-c1cccc(OCCCNC(CO)CO)c1Cl [Example 2039, 5-((4-chloro-5-((2′-chloro-3′-(3-((1,3-dihydroxypropan-2-yl)amino)propoxy)-2-methyl-[1,1′-biphenyl]-3-yl)methoxy)-2-(hydroxymethyl)phenoxy)methyl)nicotinonitrile]
0.00021 to 0.01 | Cc1c(OCCCN2CC[C@@H](O)C2)cccc1-c1cccc(COc2cc(OCC#N)c(CNC(CO)CO)cc2Cl)c1Cl [Example 2314, (R)-2-(4-chloro-5-((2-chloro-3′-(3-(3-hydroxypyrrolidin-1-yl)propoxy)-2′-methyl-[1,1′-biphenyl]-3-yl)methoxy)-2-(((1,3-dihydroxypropan-2-yl)amino)methyl)phenoxy)acetonitrile]
0.00021 to 0.01 | Cc1c(COc2cc(OCc3cncc(C#N)c3)c(CNC(CO)CO)cc2Cl)cccc1-c1cccc(C(=O)NCCN2CCCC2)c1C [Example 4003, 3′-((2-chloro-5-((5-cyanopyridin-3-yl)methoxy)-4-(((1,3-dihydroxypropan-2-yl)amino)methyl)phenoxy)methyl)-2,2′-dimethyl-N-(2-(pyrrolidin-1-yl)ethyl)-[1,1′-biphenyl]-3-carboxamide]
0.00021 to 0.01 | Cc1c(COc2cc(OCc3cncc(C#N)c3)c(C(=O)NC(C)(CO)CO)cc2Cl)cccc1-c1cccc(OCCCN2CC[C@@H](O)C2)c1C [Example 2378, (R)-5-chloro-2-((5-cyanopyridin-3-yl)methoxy)-N-(1,3-dihydroxy-2-methylpropan-2-yl)-4-((3′-(3-(3-hydroxypyrrolidin-1-yl)propoxy)-2,2′-dimethyl-[1,1′-biphenyl]-3-yl)methoxy)benzamide]
0.1 to 2 | CCNC(=O)c1cccc(-c2cccc(COc3cc(OCc4cc(F)cc(F)c4)c(CNC(CO)CO)cc3Cl)c2C)c1C [Example 4021, 3′-((2-chloro-5-((3,5-difluorobenzyl)oxy)-4-(((1,3-dihydroxypropan-2-yl)amino)methyl)phenoxy)methyl)-N-ethyl-2,2′-dimethyl-[1,1′-biphenyl]-3-carboxamide]
0.00021 to 0.01 | Cc1c(COc2cc(OCc3cncc(C#N)c3)c(CNC(CO)CO)cc2Cl)cccc1-c1cccc(NC(=O)CNC2CC2)c1C [Example 2347, N-(3′-((2-chloro-5-((5-cyanopyridin-3-yl)methoxy)-4-(((1,3-dihydroxypropan-2-yl)amino)methyl)phenoxy)methyl)-2,2′-dimethyl-[1,1′-biphenyl]-3-yl)-2-(cyclopropylamino)acetamide]
